Laboratory results published in PubChem BioAssay (NCI).
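Cultured in 96-well plates, cells were exposed to test compound for 48 hours across five concentrations. The concentration for 50% growth inhibition is given as GI50. At the TGI there is no net growth.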

Assays:
Assay in all cases: inhibition of tumour cell growth, NCI panel, 48 h
[1] = tested on: 786-0 renal
[2] = tested on: A498 renal
[3] = tested on: A549 NSCLC
[4] = tested on: ACHN renal
[5] = tested on: BT-549 breast
[6] = tested on: CAKI-1 renal
[7] = tested on: CCRF-CEM leukemia
[8] = tested on: COLO 205 colon
[9] = tested on: DU-145 prostate
[10] = tested on: EKVX NSCLC
[11] = tested on: HCC-2998 colon
[12] = tested on: HCT-116 colon
[13] = tested on: HCT-15 colon
[14] = tested on: HL-60(TB) leukemia
[15] = tested on: HOP-62 NSCLC
[16] = tested on: HOP-92 NSCLC
[17] = tested on: HS 578T breast
[18] = tested on: HT29 colon
[19] = tested on: IGROV1 ovarian
[20] = tested on: K-562 leukemia
[21] = tested on: KM12 colon
[22] = tested on: LOX IMVI melanoma
[23] = tested on: M14 melanoma
[24] = tested on: MALME-3M melanoma
[25] = tested on: MCF7 breast
[26] = tested on: MDA-MB-231 breast
[27] = tested on: MDA-MB-435
[28] = tested on: MDA-MB-468 breast
[29] = tested on: MOLT-4 leukemia
[30] = tested on: NCI-H226 lung
[31] = tested on: NCI-H23 lung
[32] = tested on: NCI-H460 lung
[33] = tested on: NCI-H522 lung
[34] = tested on: OVCAR-3 ovarian
[35] = tested on: OVCAR-4 ovarian
[36] = tested on: OVCAR-5 ovarian
[37] = tested on: OVCAR-8 ovarian
[38] = tested on: PC-3 prostate
[39] = tested on: RPMI-8226 leukemia
[40] = tested on: RXF 393 renal
[41] = tested on: SF-268 CNS
[42] = tested on: SF-295 CNS
[43] = tested on: SF-539 CNS
[44] = tested on: SK-MEL-2 melanoma
[45] = tested on: SK-MEL-28 melanoma
[46] = tested on: SK-MEL-5 melanoma
[47] = tested on: SK-OV-3 ovarian
[48] = tested on: SN12C renal
[49] = tested on: SNB-19 CNS
[50] = tested on: SNB-75 CNS
[51] = tested on: SR leukemia
[52] = tested on: SW-620 colon
[53] = tested on: T-47D breast
[54] = tested on: TK-10 renal
[55] = tested on: U251 CNS
[56] = tested on: UACC-257 melanoma
[57] = tested on: UACC-62 melanoma
[58] = tested on: UO-31 renal

With `O=C(c1ccc(O)cc1)C1[C@H](c2ccccc2Br)[C@@H](c2ccccc2)NC12C(=O)Nc1ccccc12` (stereo partly specified) as the molecule, how does the GI50 [1] read?
The GI50 was 9.47 µM.

And the TGI [1]?
The TGI was 18.1 µM.

And the GI50 [2]?
The GI50 was 8.6 µM.

And the TGI [2]?
The TGI was 16.8 µM.

What about the GI50 [3] of the same molecule?
The GI50 was 8.07 µM.

What about the TGI [3] of the same molecule?
Its TGI is 16.9 µM.

What about the GI50 [4] of the same molecule?
The GI50 was 9.17 µM.

And the TGI [4]?
Its TGI is 17.8 µM.

What about the GI50 [5] of the same molecule?
The GI50 was 7.23 µM.

And the TGI [5]?
The TGI was 15 µM.

And the GI50 [6]?
The GI50 was 7 µM.

And the TGI [6]?
The TGI was 15.1 µM.

And the GI50 [7]?
The GI50 was 10 µM.

And the TGI [7]?
The TGI was 22.9 µM.

What about the GI50 [8] of the same molecule?
Its GI50 is 9.19 µM.

And the TGI [8]?
Its TGI is 17.8 µM.

What about the GI50 [9] of the same molecule?
Its GI50 is 10 µM.

What about the TGI [9] of the same molecule?
The TGI was 19 µM.

And the GI50 [10]?
The GI50 was 9.34 µM.

And the TGI [10]?
Its TGI is 23.2 µM.

And the GI50 [11]?
Its GI50 is 8.48 µM.

And the TGI [11]?
The TGI was 16.6 µM.

What about the GI50 [12] of the same molecule?
The GI50 was 8.93 µM.

And the TGI [12]?
The TGI was 18 µM.

And the GI50 [13]?
The GI50 was 9.43 µM.

And the TGI [13]?
Its TGI is 20 µM.

What about the GI50 [14] of the same molecule?
Its GI50 is 15.1 µM.

And the TGI [14]?
Its TGI is 44.7 µM.

What about the GI50 [15] of the same molecule?
The GI50 was 9.37 µM.

What about the TGI [15] of the same molecule?
The TGI was 18.1 µM.

What about the GI50 [16] of the same molecule?
Its GI50 is 7.83 µM.

And the TGI [16]?
The TGI was 16.4 µM.

What about the GI50 [17] of the same molecule?
Its GI50 is 9.49 µM.

What about the TGI [17] of the same molecule?
The TGI was 27.2 µM.

What about the GI50 [18] of the same molecule?
Its GI50 is 10.2 µM.

What about the TGI [18] of the same molecule?
Its TGI is 20.5 µM.

And the GI50 [19]?
Its GI50 is 7.29 µM.

And the TGI [19]?
The TGI was 15.5 µM.

What about the GI50 [20] of the same molecule?
Its GI50 is 12.9 µM.

And the TGI [20]?
Its TGI is 40.2 µM.

And the GI50 [21]?
Its GI50 is 9.8 µM.

And the TGI [21]?
Its TGI is 20.2 µM.

What about the GI50 [22] of the same molecule?
The GI50 was 8.3 µM.

What about the TGI [22] of the same molecule?
Its TGI is 16.2 µM.

And the GI50 [23]?
The GI50 was 8.94 µM.

What about the TGI [23] of the same molecule?
The TGI was 17.7 µM.

What about the GI50 [24] of the same molecule?
Its GI50 is 8.58 µM.

And the TGI [24]?
The TGI was 16.4 µM.

And the GI50 [25]?
Its GI50 is 10.4 µM.

What about the TGI [25] of the same molecule?
The TGI was 27.6 µM.

What about the GI50 [26] of the same molecule?
The GI50 was 7.94 µM.

What about the TGI [26] of the same molecule?
The TGI was 15.8 µM.

And the GI50 [27]?
Its GI50 is 10.5 µM.

And the TGI [27]?
Its TGI is 20 µM.

What about the GI50 [28] of the same molecule?
Its GI50 is 7.08 µM.

What about the TGI [28] of the same molecule?
Its TGI is 16 µM.

What about the GI50 [29] of the same molecule?
Its GI50 is 7.99 µM.

And the TGI [29]?
Its TGI is 25 µM.

What about the GI50 [30] of the same molecule?
Its GI50 is 6.82 µM.

And the TGI [30]?
The TGI was 15 µM.

And the GI50 [31]?
Its GI50 is 9.23 µM.

And the TGI [31]?
The TGI was 18.2 µM.

And the GI50 [32]?
The GI50 was 9.17 µM.

And the TGI [32]?
The TGI was 17.8 µM.

And the GI50 [33]?
Its GI50 is 8.25 µM.

And the TGI [33]?
Its TGI is 17.5 µM.

What about the GI50 [34] of the same molecule?
The GI50 was 9.2 µM.

What about the TGI [34] of the same molecule?
Its TGI is 18.3 µM.

And the GI50 [35]?
Its GI50 is 8.72 µM.

And the TGI [35]?
Its TGI is 19.1 µM.

What about the GI50 [36] of the same molecule?
The GI50 was 9.47 µM.

What about the TGI [36] of the same molecule?
Its TGI is 18.2 µM.

And the GI50 [37]?
The GI50 was 9.27 µM.

And the TGI [37]?
The TGI was 17.7 µM.

What about the GI50 [38] of the same molecule?
Its GI50 is 8.03 µM.

And the TGI [38]?
The TGI was 21.3 µM.

And the GI50 [39]?
The GI50 was 12.8 µM.

And the TGI [39]?
The TGI was 42.6 µM.

What about the GI50 [40] of the same molecule?
Its GI50 is 5.14 µM.

What about the TGI [40] of the same molecule?
The TGI was 12.8 µM.

And the GI50 [41]?
The GI50 was 7.83 µM.

And the TGI [41]?
Its TGI is 18.8 µM.

And the GI50 [42]?
Its GI50 is 9.77 µM.

And the TGI [42]?
Its TGI is 21 µM.

And the GI50 [43]?
The GI50 was 9.08 µM.

What about the TGI [43] of the same molecule?
The TGI was 17.2 µM.

And the GI50 [44]?
The GI50 was 8.33 µM.

What about the TGI [44] of the same molecule?
Its TGI is 16.2 µM.

And the GI50 [45]?
Its GI50 is 9.1 µM.

And the TGI [45]?
Its TGI is 17.2 µM.

And the GI50 [46]?
The GI50 was 8.92 µM.

What about the TGI [46] of the same molecule?
The TGI was 16.9 µM.

What about the GI50 [47] of the same molecule?
Its GI50 is 11.9 µM.

What about the TGI [47] of the same molecule?
Its TGI is 31.3 µM.

And the GI50 [48]?
The GI50 was 8.7 µM.

What about the TGI [48] of the same molecule?
Its TGI is 16.6 µM.

And the GI50 [49]?
Its GI50 is 9.03 µM.

And the TGI [49]?
Its TGI is 17.2 µM.

What about the GI50 [50] of the same molecule?
Its GI50 is 7.87 µM.

And the TGI [50]?
The TGI was 19.9 µM.

What about the GI50 [51] of the same molecule?
The GI50 was 9.59 µM.

And the TGI [51]?
The TGI was 24 µM.

And the GI50 [52]?
The GI50 was 10.1 µM.

And the TGI [52]?
The TGI was 19.6 µM.

What about the GI50 [53] of the same molecule?
Its GI50 is 10.5 µM.

And the TGI [53]?
Its TGI is 38.9 µM.

What about the GI50 [54] of the same molecule?
The GI50 was 9.29 µM.

What about the TGI [54] of the same molecule?
The TGI was 18.8 µM.

What about the GI50 [55] of the same molecule?
The GI50 was 9.11 µM.

What about the TGI [55] of the same molecule?
Its TGI is 17.1 µM.

And the GI50 [56]?
Its GI50 is 8.73 µM.

What about the TGI [56] of the same molecule?
The TGI was 16.9 µM.

And the GI50 [57]?
The GI50 was 7.63 µM.

What about the TGI [57] of the same molecule?
The TGI was 15.1 µM.

And the GI50 [58]?
Its GI50 is 7.61 µM.

And the TGI [58]?
The TGI was 15 µM.
